Test results as given in article PMC12320299 (Chemical Science, 2025).

What was measured:
[1] = system: murine CT26 colon carcinoma cells; experiment: MTT viability assay, CT26, 96 h; type: cell-based; conditions: wildtype TP53
Procedure: removed and 100 µL DMSO was added to dissolve the formazan crystals. Photometric quantification was performed at 570 nm with a Multiskan Go 1510 photometer (Thermo Fisher […]
The absorbances were blank corrected and converted to relative proliferation. The IC50 values (concentration of 50% growth inhibition) were obtained using a sigmoidal fit of the experimental data and calculated as the mean ± standard deviation of at least three independent experiments, each in at least triplicates.
HCT116, HCT116 p53KO (each 2.000 cells/well) and CT-26 cells (500 cells/well) were seeded in 100 µL/well into flat-bottom 96-well plates (Starlab) and incubated at 37 °C for 96 h in a humidified incubator (Binder CB210) at 5% CO2. The test compound was dissolved in DMSO, serially diluted in the appropriate cell culture medium (see section above) to final DMSO concentrations of ≤0.5% v/v and 100 µL aliquots added to wells in triplicates. […] Optical densities were measured with a microplate reader (ELx808, Biotek) at a wavelength of 550 nm (and a reference wavelength of 690 nm) and blank corrected. […]
(each 3.000 cells/well) were seeded in 100 µL/well into flat-bottom 96-well plates (Starlab) and incubated at 37 °C for 24 h in a humidified incubator (Binder CB210) at 5% CO2. […] After 24 h of treatment, plates were measured by MTT assay as described above. […]

[2] = Total 101Ru content in tumour, organs and blood by ICP-MS; type: in vivo, BALB/c mice; conditions: 4 h after last injection, 10 mg kg^−1 i.p.
Procedure: Furthermore, tumour, organs and blood of the 1a-treated mice were collected 4 h after the last injection. […] Intraperitoneally administered compounds are primarily absorbed through the portal circulation, which can lead to a substantial liver exposure.[71] […] This paralleled earlier findings of other metal(arenes) in this tumour model.[72]
Animals. All experiments were carried out with male Balb/c mice according to the regulation of the Ethics Committee for the Care and Use of Laboratory Animals at the Medical University Vienna (BMWF-2022-0.770.291), the guidelines from the Austrian Animal Science Association and the Federation of European Laboratory Animal Science Associations (FELASA). The animals were kept in a pathogen-free conditions, controlled environment with 12 h light–dark cycle with ad libitum access to food and water. Every procedure was done in a laminar airflow […]
Treatment. CT-26 cells ([…] in 50 μL serum-free medium) were injected subcutaneously (s.c.) into the right flank of ten– to eleven-week-old male Balb/c mice. Three days after cell injection, all compounds (dissolved in 10% DMSO in water) were administered […]
1b/2b. Regarding anticancer activity experiments, mice were treated on 5 consecutive days over 2 weeks. Four hours after the last treatment 1a-treated mice were sacrificed and analysed for ruthenium levels in tissue via ICP-MS measurements. […]
Missing data points were imputed. Permutation-based FDR was set to 0.05 and S0 = 0.1 for multi-parameter corrected significance testing of protein regulation. […]
Resources (Version 6.8)13 and STRING (Version 10.0).14
Additionally, statistical analysis of protein regulations from the in vivo samples was performed using the LIMMA R-package.15 P-values where adjusted according to Benjamini-Hochberg16 and a gene set variation analysis was performed (GSVA).17 Protein Sets where constructed using the molecular signature database.18
Total metal content in organs harvested from 1a-treated mice was determined by inductively coupled plasma mass spectrometry (ICP-MS) on an Agilent 7800 instrument and Agilent SPS 4 autosampler using the following parameters: RF power 1550, carrier gas (Ar) 1.08 L∙min-1, plasma gas (Ar) 15 L∙min-1, dwell time 0.1 s, 12 replicates with 100 sweeps. A […]
by Agilent MassHunter (Version C.01.04) software.
The lower limit of quantification of the method was 0.071 µg L-1. Organs, tumour and blood were digested with nitric acid (20% w/w) and diluted with ultrapure water to reach a final nitric acid concentration <4%.

## CCC1=C2[O][Ru][O]C2(n2cccn2)c2ccccc2C1=O.Cc1ccc(C(C)C)cc1 (centres unmarked) [Compound 1a, [(3-ethyl-4-oxo-(pyrazolyl)-dihydronaphthalene)(cymene)ruthenium(II)]]
[1]
  IC50: 800 ± 150 nM
[2]
  101Ru content, blood clot: < 0.4 mg/kg
  101Ru content, blood serum: < 0.4 mg/kg
  101Ru content, liver: 10 ± 1 mg/kg
  101Ru content, tumour: 0.9 ± 0.7 mg/kg
